Source: the supplement of paper PMC8967900

Columns and labels:
Assay in all cases: selective drug sensitivity score (sDSS, relative to normal bone marrow) (sDSS (score)); higher = more potent and effective on the cell line relative to normal bone marrow cells
Settings in all cases: 72 h
COG-LL-332h = system: COG-LL-332h
P12-ICHIKAWA = system: P12-ICHIKAWA
RPMI-8402 = system: RPMI-8402
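Note: ALL cell lines in 384-well plates, five doses spanning 10,000-fold, each plate scaled between vehicle and 100 µmol/L benzalkonium chloride controls, sDSS an adapted area-under-curve metric.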

Row | Compound | selective drug sensitivity score (COG-LL-332h) | selective drug sensitivity score (P12-ICHIKAWA) | selective drug sensitivity score (RPMI-8402)
1 | Cc1c(-c2ccc(N3CCc4cccc(C(=O)Nc5nc6ccccc6s5)c4C3)nc2C(=O)O)cnn1CC12CC3CC(CC(C3)C1)C2 (top concentration 1000 nM) | 9.14 | 27.7 | 13
2 | O=C(NOC[C@H](O)CO)c1ccc(F)c(F)c1Nc1ccc(I)cc1F (top concentration 1000 nM) | -2.26 | 0.84 | -3.86
3 | CO[C@@H](C)Cn1c(=O)n(C)c2cnc3ccc(-c4cncc(C(C)(C)O)c4)cc3c21 (top concentration 2500 nM) | 4.18 | 1.38 | 2.78
4 | Cc1cccc(CC(=O)N2CCc3c2ccc(-c2cn(C)c4ncnc(N)c24)c3F)n1 (top concentration 2500 nM) | 0.32 | 2.82 | 5.22
5 | CNC(=O)c1ccccc1Nc1nc(Nc2ccc3c(c2OC)CCC[C@H](N2CCN(CCO)CC2)C3)ncc1Cl (top concentration 5000 nM) | -1.54 | -2.84 | -0.74
6 | COc1cc2ncnc(Oc3cccc(NC(=O)Nc4cc(C(C)(C)C(F)(F)F)on4)c3)c2cc1OC (top concentration 10000 nM) | 18.4 | 5.9 | 4.7
7 | C[C@@H](Oc1cc(-n2cnc3ccc(CN4CCN(C)CC4)cc32)sc1C(N)=O)c1ccccc1C(F)(F)F (top concentration 10000 nM) | 20.5 | 21.9 | 28.8
8 | Nc1nccc(-c2c(-c3ccc(F)cc3)ncn2C2CCCCC2)n1 (top concentration 10000 nM) | 3.1 | 0.1 | 0.6
9 | O=C(O)c1ccc(-c2c[nH]c3ncc(-c4ccccc4)cc23)cc1C1CCCC1 (top concentration 10000 nM) | 2.86 | 3.46 | 1.66
10 | C[C@@H]1CN(CC(=O)Nc2ccc3c(c2)Cc2cccc(-c4cc(=O)cc(N5CCOCC5)o4)c2S3)C[C@H](C)O1 (top concentration 25000 nM) | 2.02 | -0.58 | 1.82
11 | COc1ccc2[nH]cc(/C=C3\C(=O)Nc4ccc(NC(=O)CCN5CCCCC5)cc43)c2c1 (top concentration 50000 nM) | 4.68 | -0.52 | 2.68
12 | Cc1nn(C)c(COc2ccc(N3CCN(S(=O)(=O)N(C)C)CC3)cc2)c1-c1cccc2c(CCCOc3cccc4ccccc34)c(C(=O)O)n(CCN3CCOCC3)c12 (top concentration 50000 nM) | 4.16 | 6.76 | 4.86
13 | C[C@H](Nc1ncnc2[nH]cnc12)c1cc2ccc(F)cc2nc1-c1ccccn1 [AMG319] (top concentration 1000 nM) | -1.42 | -1.42 | -1.42
14 | C=CCn1c(=O)c2cnc(Nc3ccc(N4CCN(C)CC4)cc3)nc2n1-c1cccc(C(C)(C)O)n1 [AZD1775] (top concentration 10000 nM) | 11 | 13.6 | 13.9
15 | NC(=O)Nc1cc(-c2cccc(F)c2)sc1C(=O)N[C@H]1CCCNC1 [AZD7762] (top concentration 1000 nM) | -0.8 | -0.5 | 0
16 | Cc1cc([C@@H](C)Nc2ccccc2C(=O)O)c2nc(N3CCOCC3)cc(=O)n2c1 [AZD-6482] (top concentration 2500 nM) | 1.32 | 0.42 | 2.32
17 | CN(C)Cc1c(C(=O)NCCOc2ccc(C(=O)NO)cc2)oc2ccccc12 [Abexinostat] (top concentration 10000 nM) | 0.36 | 4.66 | 4.96

Row | Compound | selective drug sensitivity score (COG-LL-332h) | selective drug sensitivity score (P12-ICHIKAWA) | selective drug sensitivity score (RPMI-8402)
18 | S=C(NCc1ccc2c(c1)OCO2)N1CCN(c2ncnc3c2oc2ccccc23)CC1 [Amuvatinib] (top concentration 10000 nM) | 2.96 | 7.46 | 10.9
19 | CC(=O)OC[C@H]1O[C@@H]([S-])[C@H](OC(C)=O)[C@@H](OC(C)=O)[C@@H]1OC(C)=O.CCP(CC)CC.[Au+] [Auranofin] (top concentration 2500 nM) | 1.44 | -0.96 | -2.36
20 | CNC(=O)c1ccccc1Sc1ccc2c(/C=C/c3ccccn3)n[nH]c2c1 [Axitinib] (top concentration 10000 nM) | 13.3 | 12.1 | 6.06
21 | Cc1c(N)nc([C@H](CC(N)=O)NC[C@H](N)C(N)=O)nc1C(=O)N[C@H](C(=O)N[C@H](C)[C@@H](O)[C@H](C)C(=O)N[C@H](C(=O)NCCc1nc(-c2nc(C(=O)NCCC[S+](C)C)cs2)cs1)[C@@H](C)O)[C@@H](O[C@@H]1O[C@@H](CO)[C@@H](O)[C@H](O)[C@@H]1O[C@H]1O[C@H](CO)[C@@H](O)[C@H](OC(N)=O)[C@@H]1O)c1c[nH]cn1 [Bleomycin] (top concentration 10000 nM) | 8.04 | -0.56 | -1.36
22 | CC(C)C[C@H](NC(=O)[C@H](Cc1ccccc1)NC(=O)c1cnccn1)B(O)O [Bortezomib] (top concentration 1000 nM) | 4.22 | 2.22 | 2.72
23 | CCC/C=C/C=C/C(=O)O[C@H]1/C(=C/C(=O)OC)C[C@H]2C[C@H]([C@@H](C)O)OC(=O)C[C@H](O)C[C@@H]3C[C@H](OC(C)=O)C(C)(C)[C@](O)(C[C@@H]4C/C(=C/C(=O)OC)C[C@H](/C=C/C(C)(C)[C@]1(O)O2)O4)O3 [Bryostatin_1] (top concentration 100 nM) | -7.12 | 1.68 | -4.52
24 | CO[C@H]1CC[C@H](N2C(=O)CNc3ncc(-c4ccc(C(C)(C)O)nc4)nc32)CC1 [CC-223] (top concentration 10000 nM) | 1.92 | 1.92 | 0.62
25 | CN(C)c1cc2c(cc1Sc1nc3c(N)nccc3n1CCNCC(C)(C)C)OCO2 [CUDC-305] (top concentration 10000 nM) | 3.82 | 2.82 | 1.42
26 | CO[C@H]1C(=O)[C@]2(C)[C@@H](OC)C[C@H]3OC[C@@]3(OC(C)=O)[C@H]2[C@H](OC(=O)c2ccccc2)[C@]2(O)C[C@H](OC(=O)[C@H](O)[C@@H](NC(=O)OC(C)(C)C)c3ccccc3)C(C)=C1C2(C)C [Cabazitaxel] (top concentration 1000 nM) | 22.1 | 3.08 | 15.5
27 | C=CC(=O)Nc1cc2c(Nc3ccc(F)c(Cl)c3)ncnc2cc1OCCCN1CCOCC1 [Canertinib] (top concentration 10000 nM) | 1.86 | -1.54 | -1.54
28 | CC(C)C[C@H](NC(=O)[C@H](CCc1ccccc1)NC(=O)CN1CCOCC1)C(=O)N[C@@H](Cc1ccccc1)C(=O)N[C@@H](CC(C)C)C(=O)[C@@]1(C)CO1 [Carfilzomib] (top concentration 1000 nM) | 5.16 | 1.26 | -2.74
29 | O=C(c1ccc(F)c(F)c1Nc1ccc(I)cc1F)N1CC(O)([C@@H]2CCCCN2)C1 [Cobimetinib] (top concentration 1000 nM) | -3.08 | -1.88 | -3.68
30 | COc1c(OCCCN2CCOCC2)ccc2c1N=C(NC(=O)c1cnc(N)nc1)N1CCN=C21 [Copanlisib] (top concentration 1000 nM) | 2.78 | -0.42 | 2.58
31 | Cn1c(=O)n(-c2ccc(C(C)(C)C#N)cc2)c2c3cc(-c4cnc5ccccc5c4)ccc3ncc21 [Dactolisib] (top concentration 1000 nM) | 5.96 | 4.76 | 7.76
32 | O=C(/C=C/c1cccnc1)NCCCCC1CCN(C(=O)c2ccccc2)CC1 [Daporinad] (top concentration 1000 nM) | 17 | 9.16 | 16.3
33 | CC(=O)N(O)CCCCCNC(=O)CCC(=O)N(O)CCCCCNC(=O)CCC(=O)N(O)CCCCCN [Deferoxamine] (top concentration 10000 nM) | 10.4 | 3.66 | 2.06
34 | Cc1cc(Nc2cc(N3CCN(C)CC3)nc(/C=C/c3ccccc3)n2)n[nH]1 [ENMD-2076] (top concentration 10000 nM) | 4.34 | 8.24 | 1.44
